The target of series [1] is T1, Human TRPV1 (Homo sapiens (Human), UniProt Q8NER1). Nature of the series: pH-Based Assay (Protocol 2), Ca2+ response in TRPV1/CHO cells. In kind it is cell-based. Conditions: pH 5.0-5.1 (H2SO4). On the procedure:
The TRPV1/CHO cell line was generated as described below. The following assay was conducted to determine the concentration of sulfuric acid that would give rise to a pH that induces a […] response optimal to test compounds for their effect on TRPV1. […] For one half of a 96-well plate one agonist solution was used, for the other half the other agonist solution. The agonist solutions were obtained by diluting sulfuric acid (H2SO4, 1 M) with measuring buffer. The concentrations for the two agonist solutions were determined as described above in Section 2 of Protocol 2. The sulfuric acid concentrations between the two agonist solutions differed by 0.5 mM. […] The thereby-obtained solutions were further diluted in measuring buffer (1:100) as 10× stock serial dilutions with a DMSO concentration of 1%. 10 μL of a 10× stock was added into each well at step 3.3.(4) of Protocol 2. Thus, the final concentrations of antagonists ranged from 1000-0.977 nM containing 0.1% DMSO (FIG. 3B). […] (3) The cells were washed twice with 150 μL of measuring buffer (mentioned in 2.2.(3) of Protocol 2, no probenecid). The wells were subsequently refilled with 70 μL of measuring buffer. (4) Either 10 μL of measuring buffer or 10 μL of 10× stock serial dilution of test compound (described in 3.2. above) were applied to each well. Usually, only one test compound was tested per 96-well plate. The number of replicates per 96-well plate for a particular antagonist at a particular concentration was 7×2 since two different sulfuric acid concentrations were used per 96-well plate (N=7×2)(FIG. 3). Step (5) was the same as 2.2.(4) above. (6) Fura-2 fluorescent intensity was monitored as described in 2.2.(5) above. […] Steps (7) and (8) were as described in 2.2.(6) and 2.2.(7) above, respectively. […] FIG. 3) were measured one by one using a portable pH meter.

A short description of series [2]: Measurement of Body Temperature Increase. In kind it is in vivo. Particulars: Crl/SD rats, oral, 1 mg/mL in 0.5% methylcellulose at 10 mL/kg; rectal temperature 0.5, 1 and 2 hrs after administration; difference from vehicle group average. Here is the method: Selection of rats (Crl/SD rats, 7 weeks, male) for this study is based on rectal body temperature measured during the morning of the day of dosing. In addition, animals selected for this study are acclimated to both the rectal measurement procedure and to being handled and dosed to minimize spontaneous, stress-induced, increases in body temperature. The study is conducted in the animal care laboratories where the room temperature and humidity are kept. The rats are free to move and food and water during the study. Each rat is numbered with color line on the tail, housed in each cage and permittted the normal range of movement. Immediately before each body temperature is measured, they transferred to a single cage at each measurement. To reduce stress which affected the body temperature, the rats are covered with towels at the measurement. The thermistor probe is then carefully inserted into the rectum of each rat and left in place until the value on the digital display had stabilized.
On the day before dosing, rectal body temperatures are measured at 9:00, 10:00, 11:00, 12:30, 13:30, 14:30 and 15:30 to familiarize the animals with the measurement procedure prior to administration of the test or control treatments. The rats are also dosed by oral gavage without vehicle at 12:30 to acclimate and familiarized the animals with the handling and dosing procedure.
On the day of dosing, only rats whose rectal body temperatures are within the range of 37.0° C. to 37.7° C. are selected for this study. Rectal body temperatures are measured at 9:00, 10:00 and 11:00. Rats whose rectal body temperatures are over 37.9° C. at 10:00, and are outside the range of 37.0° C. to 37.7° C. at 11:00 are excluded from the study. The selected rats are divided to several groups based on their rectal body temperatures at 11:00. Rectal body temperatures of the selected rats are measured again at 12:30, and any rats whose rectal body temperature is 38.0° C. or greater are excluded from the study.
Following the group assignment, test compounds or vehicle is administrated to the rats. Each test compound is dissolved in 0.5% methylcellulose and the final concentration of the compound is adjusted to 1 mg/mL. Test compound is orally administrated in a volume 10 mL/kg once. 10 mL/kg of vehicle (0.5% methylcellulose) is administered to the vehicle group. The rectal body temperatures are measured 0.5, 1 and 2 hrs after the administration. The study is conducted in the animal care laboratories where the room temperature and humidity are kept.
Body temperature increase (ΔTb) is calculated from the difference from an average of the vehicle group at each time point. The body temperature increases (ΔTb) of Compounds I-20, I-25, I-26, I-28, I-29, I-33, I-34, I-36, I-37, I-63 and I-64 were less than 0.3° C.

The target of series [3] is T1, Human TRPV1. Kind of series: Capsaicin-Based Assay (Protocol 2), TRPV1/CHO cells. It is filed as cell-based. Conditions: capsaicin 100 nM final, Fluo-4, read-out: TRPV1 IC50 Potency Capsaicin-Based Assay IC50. On the procedure: The TRPV1/CHO cell line was generated as described below. […] Subsequently, the cells were loaded by incubation in 0.1 mL of wash buffer containing Fluo-4 at 3 μM final concentration. After 1 hour, the cells were washed twice with 0.2 mL wash buffer and resuspended in 0.1 mL wash buffer. The plates were then transferred to a Fluorescence Imaging Plate Reader (Molecular Devices). Fluorescence intensity was monitored for 15 seconds to establish a baseline. […] The final concentration of the compound was adjusted to range from 100 μM to 1.5625 μM. […] Data were collected over the entire time course and analyzed using Excel and the curve-fitting formula GraphPad Prism.

We go through 3 compounds from patent publication US9156830B2, “Heterocyclic compounds” (SHIONOGI & CO., LTD., priority 2011, dated 2015).

T1 sequence (Q8NER1 whole entry): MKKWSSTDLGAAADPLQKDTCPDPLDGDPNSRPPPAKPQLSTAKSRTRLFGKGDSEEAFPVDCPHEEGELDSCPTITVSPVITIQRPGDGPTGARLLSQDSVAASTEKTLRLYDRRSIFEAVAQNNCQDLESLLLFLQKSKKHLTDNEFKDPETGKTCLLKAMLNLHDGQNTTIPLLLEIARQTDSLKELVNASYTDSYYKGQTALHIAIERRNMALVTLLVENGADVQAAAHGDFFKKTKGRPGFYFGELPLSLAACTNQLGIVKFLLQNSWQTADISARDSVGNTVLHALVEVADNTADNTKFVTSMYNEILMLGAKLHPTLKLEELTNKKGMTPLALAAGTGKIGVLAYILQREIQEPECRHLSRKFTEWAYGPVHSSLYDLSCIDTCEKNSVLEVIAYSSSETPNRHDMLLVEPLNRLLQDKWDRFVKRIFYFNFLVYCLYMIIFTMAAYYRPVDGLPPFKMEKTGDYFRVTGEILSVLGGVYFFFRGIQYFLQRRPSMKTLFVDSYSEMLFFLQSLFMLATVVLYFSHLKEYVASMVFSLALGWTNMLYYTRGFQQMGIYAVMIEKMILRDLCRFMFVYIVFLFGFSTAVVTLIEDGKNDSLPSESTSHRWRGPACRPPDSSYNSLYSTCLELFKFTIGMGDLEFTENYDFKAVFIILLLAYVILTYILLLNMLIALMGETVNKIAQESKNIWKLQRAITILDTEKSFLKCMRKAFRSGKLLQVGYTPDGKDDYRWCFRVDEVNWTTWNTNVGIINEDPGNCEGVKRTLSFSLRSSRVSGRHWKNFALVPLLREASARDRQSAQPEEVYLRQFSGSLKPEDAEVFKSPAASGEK

On to `O=C(Nc1nc2ccc(F)cc2s1)N1CC=C(c2ncc(-c3cc(CO)on3)cc2Cl)CC1` [Compound I-34, 4-(3-chloro-5-(5-(hydroxymethyl)isoxazol-3-yl)pyridin-2-yl)-N-(6-fluorobenzo[d]thiazol-2-yl)-5,6-dihydropyridine-1(2H)-carboxamide], for which the IC50 – broadly, the midpoint of a concentration-inhibition curve – on Human TRPV1 [1] (Fura-2, read-out: TRPV1 IC50 Potency pH-Based Assay IC50) worked out at 0.0336 µM. For the same compound, in series [2], the “Body temperature increase (ΔTb)” value is “less than 0.3 °C”.

As to `O=C(Nc1ccc(C(F)(F)F)c(Cl)c1)N1CC=C(c2ncc(-c3nc(CO)no3)cc2Cl)CC1` [Compound I-36, N-(3-chloro-4-(trifluoromethyl)phenyl)-4-(3-chloro-5-(3-(hydroxymethyl)-1,2,4-oxadiazol-5-yl)pyridin-2-yl)-5,6-dihydropyridine-1(2H)-carboxamide], at Human TRPV1 [1] (Fura-2, read-out: IC50 value by the pH-Based Assay), the half-inhibitory concentration (IC50) was at most 0.1 µM. The “Body temperature increase (ΔTb)” value in series [2] is “less than 0.3 °C”.

In the case of `O=C(Nc1ccc(C(F)(F)F)c(Cl)c1)N1CC=C(c2ncc(-c3nnc([C@H](O)CO)o3)cc2Cl)CC1` [Compound I-20, (R) —N-(3-chloro-4-(trifluoromethyl)phenyl)-4-(3-chloro-5-(5-(1,2-dihydroxyethyl)-1,3,4-oxadiazol-2-yl)pyridin-2-yl)-5,6-dihydropyridine-1(2H)-carboxamide], the 50% inhibitory concentration (IC50) at Human TRPV1 [3] was 0.147 µM. Moreover, the “Body temperature increase (ΔTb)” value in series [2] is “less than 0.3 °C”.
